Literature values, collected in US20190298722A1, “USE OF AN INHIBITOR OF THE DE NOVO SYNTHESIS OF PURINES, IN THE TREATMENT OF ADENYLOSUCCINATE LYASE DEFICIENCY” (ASSISTANCE PUBLIQUE-HOPITAUX DE PARIS, priority 2016, published 2019).

Columns and labels:
ADSL deficiency patients = settings: child; not confirmed by other studies (Jurecka et al. 2015); cited from earlier work
brains of rats = settings: infusion into the brains of rats; cited from earlier work
ADSL deficiency patient = settings: one patient, after 9 months of treatment; cited from earlier work

## O=C[C@H](O)[C@H](O)[C@H](O)CO [D-ribose]
ADSL deficiency patients
  motor coordination and seizure control: improvement

## Nc1c(C(=O)N[C@@H](CC(=O)O)C(=O)O)ncn1[C@@H]1O[C@H](CO)[C@@H](O)[C@H]1O [SAICAr, succinylaminoimidazole carboxamide riboside]
Brains of rats
  neuronal damage: significant neuronal damage

## C[S+](CC[C@H](N)C(=O)[O-])C[C@H]1O[C@@H](n2cnc3c(N)ncnc32)[C@H](O)[C@@H]1O (stereo partly shown) [SAMe, S-adenosyl-1-methionine]
ADSL deficiency patient
  clinical and biological parameters: no improvement

## O=c1ccn([C@@H]2O[C@H](CO)[C@@H](O)[C@H]2O)c(=O)[nH]1 [uridine]
ADSL deficiency patients
  motor coordination and seizure control: improvement
